In article PMC11219871, “Epigenetic-based differentiation therapy for Acute Myeloid Leukemia” (Nature Communications, 2024):
Several values for one entry are separate records, joined by “and”; a condition that tells them apart may be missing. Equal values may be shown once.

Columns and labels:
[1] = test system: HL-60; experiment: q-RT-PCR of MYC, CDKN2A, CDKN1A, GATA2, TAL1, CEBPA, SPI1; type: cell-based, human
Protocol: (§1) RNA was extracted with TRIzol Reagent (Invitrogen) according to the manufacturer’s instructions. First, cDNA was synthesized from 1 µg of total RNA using the PrimeScript RT reagent Kit (Perfect Real Time) (Cat No RR037A, TaKaRa) following the manufacturer’s instructions. The quality of cDNA was checked by a multiplex PCR that amplifies PBGD, ABL, BCR and β2-MG genes. […] The following program conditions were used for the q-PCR: 50 °C for 2 min, 95 °C for 60 s following by 45 cycles at 95 °C for 15 s and 60 °C for 60 s; melting program, one cycle at 95 °C for 15 s, 40 °C for 60 s, and 95 °C for 15 s. The relative expression of each gene was quantified by the […] method using the gene GUS as an endogenous control. The sequence of primers used can be found in Supplementary Table 10.

[2] = test system: MV4-11; experiment: as above; type: cell-based, human
Protocol: as §1

[3] = test system: MOLM-13; experiment: as above; type: cell-based, human
Protocol: as §1

[4] = test system: ML-2; experiment: as above; type: cell-based, human
Protocol: as §1

[5] = Pharmacokinetic study in plasma samples; type: in vivo, mouse; settings: 10 mg/kg i.p.
Protocol: Compounds CM-444 and CM-1758 were measured in plasma using an Acquity UPLC system (Waters, Manchester, UK) coupled to an Xevo-TQ MS triple-quadrupole mass spectrometer with ESI source.
Compound solutions were prepared by dissolving the solid in dimethyl sulfoxide (DMSO) and this solution was made up to a final volume by the addition of a mixture of Tween 20 and 0.9% NaCl (1/1/8, v-v:v, DMSO/Tween 20/saline). For the pharmacokinetic experiments, a drug dosage of 10 mg/kg was administered as a single intraperitoneal injection to RAG-2 mice. Blood was collected at predetermined post-injection times (15 min, and 1, 2, 4, 8 and 24 h) into EDTA-containing tubes, and plasma was obtained via centrifugation (4 °C, 657 g, 5 min) and stored at −80 °C until analysis.
Chromatographic separation was performed by gradient elution at 0.6 mL/min using an Acquity UPLC BEH C18 column (50 × 2.1 mm, 1.7 µm; Waters). The mobile phase consisted of A: water with 0.1% formic acid, B: methanol with 0.1% formic acid. The autosampler temperature was set at 10 °C and the column temperature at 40 °C. For detection and quantification, the ESI operated in the positive mode was set up for multiple reaction monitoring. The collision gas used was ultra-pure argon at a flow rate of 0.15 mL/min.
Quantification was achieved by external calibration using matrix-matched standards. Concentrations were calculated using a weighted least-squares linear regression (W = 1/x). Calibration standards were prepared by adding the appropriate volume of diluted compound solution (made in a mixture of methanol and water, 50:50, v-v) to aliquots of 20 µL of blank plasma. The calibration standard and sample preparation were as follows: 3% formic acid in methanol was added to precipitate the proteins. The mixture was then vortex-agitated for 1 min and centrifuged at 16,522 g for 10 min at 4 °C. A 5-µL aliquot of the supernatant solution was injected into the LC-MS/MS system for analysis. Frozen plasma samples were thawed at room temperature, vortex mixed thoroughly and subjected to the above-described extraction procedure.
The pharmacokinetic parameters were obtained by fitting the blood concentration-time data to a non-compartmental model with WinNonlin software (Pharsight, Mountain View, CA).

[6] = molecular target: T1, HDAC11 (Homo sapiens, UniProt Q96DB2); experiment: Continuous and direct activity assay for HDAC11; type: biochemical
T1 sequence (Q96DB2 1-347): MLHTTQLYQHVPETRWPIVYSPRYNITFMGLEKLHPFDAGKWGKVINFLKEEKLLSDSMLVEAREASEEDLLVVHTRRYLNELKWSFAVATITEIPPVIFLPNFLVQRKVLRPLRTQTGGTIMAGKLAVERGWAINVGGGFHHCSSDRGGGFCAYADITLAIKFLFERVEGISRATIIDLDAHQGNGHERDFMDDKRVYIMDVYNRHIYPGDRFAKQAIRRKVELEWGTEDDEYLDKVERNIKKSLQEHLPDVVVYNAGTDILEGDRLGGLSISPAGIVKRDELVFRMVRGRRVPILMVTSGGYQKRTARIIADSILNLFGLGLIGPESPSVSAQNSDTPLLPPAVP

[7] = HL-60, replicates 1-3 (Figure 2E)
[8] = HL-60, replicates 1-3 (Figure 2G)
[9] = HL-60 treated daily for 48 h, replicates (Fig 6F)
[10] = MV4-11, daily treatment for 48 h, replicates 1-3
[11] = MOLM-13, daily treatment for 48 h, replicates 1-3
[12] = ML-2, replicates 1-3 (Figure 2E)
[13] = ML-2, replicates 1-3 (Figure 2G)
[14] = ML-2 treated daily for 48 h, replicates (Fig 6G)

## COc1cc2nc(-c3ccc(C)o3)cc(NCC3CCN(c4ncc(C(=O)NO)cn4)CC3)c2cc1OC [CM-444, 2-[4-[[[6,7-dimethoxy-2-(5-methyl-2-furyl)-4-quinolyl]amino]methyl]-1-piperidyl]pyrimidine-5-carbohydroxamic acid]
[1]; [7]
  q-PCR of CDKN1A (p21), log10 (2-ΔΔCt): 1.981 and 1.653 and 1.57
  q-PCR of CDKN2A (p16), log10 (2-ΔΔCt): 0.3125 and 0.3822 and 0.4047
  q-PCR of MYC, log10 (2-ΔΔCt): -0.5893 and -0.4826 and -0.451
[1]; [8]
  q-PCR of CEBPA, log10 (2-ΔΔCt): 0.7569 and 0.6258 and 0.5709
  q-PCR of GATA2, log10 (2-ΔΔCt): 1.013 and 0.858 and 0.8451
  q-PCR of SPI1 (PU.1), log10 (2-ΔΔCt): 0.7127 and 0.6825 and 0.8316
  q-PCR of TAL1 (SCL), log10 (2-ΔΔCt): 0.1258 and 0.2369 and 0.3382
[1]; [9]
  q-PCR of CEBPA: 1.462 log10 (2-ΔΔCt) and 1.7754 log10 (2-ΔΔCt) and 1.81 log10 (2-ΔΔCt)
  q-PCR of GATA2: 0.8764 log10 (2-ΔΔCt) and 0.8459 log10 (2-ΔΔCt) and 0.7844 log10 (2-ΔΔCt)
  q-PCR of MYC: -0.6475 log10 (2-ΔΔCt) and -0.7277 log10 (2-ΔΔCt) and -0.6044 log10 (2-ΔΔCt)
  q-PCR of SPI1: 0.6661 log10 (2-ΔΔCt) and 0.715 log10 (2-ΔΔCt) and 0.8576 log10 (2-ΔΔCt)
  q-PCR of TAL1: 2.167 log10 (2-ΔΔCt) and 1.539 log10 (2-ΔΔCt) and 2.185 log10 (2-ΔΔCt)
[2]; [10]
  q-PCR of CEBPA, log10 (2-ΔΔCt): 1.345 and 1.361 and 1.2654
  q-PCR of GATA2, log10 (2-ΔΔCt): 2.051 and 2.02 and 2.0001
  q-PCR of MYC, log10 (2-ΔΔCt): -0.5124 and -0.645 and -0.6461
  q-PCR of SPI1, log10 (2-ΔΔCt): 0.5839 and 0.521 and 0.5293
  q-PCR of TAL1, log10 (2-ΔΔCt): 0.7218 and 0.3689 and 0.9897
[2]; MV4-11, q-PCR
  CDKN1A log10 (2-ΔΔCt): 0.9858 and 0.7237 and 0.8689
  CDKN2A log10 (2-ΔΔCt): 1.137 and 1.036 and 1.001
  CEBPA log10 (2-ΔΔCt): 1.693 and 1.502 and 1.597
  MYC log10 (2-ΔΔCt): -0.5932 and -0.4926 and -0.5131
  SPI1 log10 (2-ΔΔCt): 0.3258
  TAL1 log10 (2-ΔΔCt): 0.527 and 0.4921 and 0.4657
[3]; [11]
  q-PCR of CEBPA, log10 (2-ΔΔCt): 2.5418 and 2.486 and 2.37
  q-PCR of GATA2, log10 (2-ΔΔCt): 1.451 and 1.32 and 1.2001
  q-PCR of MYC, log10 (2-ΔΔCt): -0.5166 and -0.6125 and -0.4922
  q-PCR of SPI1, log10 (2-ΔΔCt): 0.3255 and 0.2581 and 0.1964
  q-PCR of TAL1, log10 (2-ΔΔCt): 1.582 and 1.681 and 1.836
[3]; MOLM-13, q-PCR
  CDKN1A log10 (2-ΔΔCt): 0.9026 and 0.7158 and 0.9504
  CDKN2A log10 (2-ΔΔCt): 0.7237 and 0.7926 and 0.8396
  CEBPA log10 (2-ΔΔCt): 1.789 and 1.635 and 1.622
  GATA2 log10 (2-ΔΔCt): 0.9826 and 1.026 and 1.05
  MYC log10 (2-ΔΔCt): -0.5821 and -0.5713 and -0.4455
  SPI1 log10 (2-ΔΔCt): 0.02369 and 0.04258 and 0.1281
  TAL1 log10 (2-ΔΔCt): 1.526 and 1.626 and 1.825
[4]; [12]
  q-PCR of CDKN1A (p21), log10 (2-ΔΔCt): 1.227 and 1.353 and 1.599
  q-PCR of CDKN2A (p16), log10 (2-ΔΔCt): 0.6515 and 0.5026 and 0.5454
  q-PCR of MYC, log10 (2-ΔΔCt): -1.502 and -1.26 and -1.4
[4]; [13]
  q-PCR of CEBPA, log10 (2-ΔΔCt): 0.9236 and 1.002 and 0.879
  q-PCR of GATA2, log10 (2-ΔΔCt): 2.413 and 2.636 and 2.689
  q-PCR of SPI1 (PU.1), log10 (2-ΔΔCt): 0.5237 and 0.6236 and 0.7619
  q-PCR of TAL1 (SCL), log10 (2-ΔΔCt): 0.9258 and 1.226 and 0.9453
[4]; [14]
  q-PCR of CEBPA: 1.15 log10 (2-ΔΔCt) and 1.105 log10 (2-ΔΔCt) and 1.112 log10 (2-ΔΔCt)
  q-PCR of GATA2: 1.841 log10 (2-ΔΔCt) and 1.852 log10 (2-ΔΔCt) and 1.8708 log10 (2-ΔΔCt)
  q-PCR of MYC: -0.8138 log10 (2-ΔΔCt) and -0.7958 log10 (2-ΔΔCt) and -0.772 log10 (2-ΔΔCt)
  q-PCR of SPI1: 0.6179 log10 (2-ΔΔCt) and 0.715 log10 (2-ΔΔCt) and 0.7068 log10 (2-ΔΔCt)
  q-PCR of TAL1: 0.9832 log10 (2-ΔΔCt) and 1.433 log10 (2-ΔΔCt) and 0.7663 log10 (2-ΔΔCt)
[5]; mice, NCA, mean
  AUClast: 0.91615 µM·h
  Cl/F: 0.53 L/h
  Vz/F: 6.56 L
  t½: 8.46 h
[5]; RAG-2, mouse, plasma, intraperitoneal, 0.25 h, read-out: plasmatic concentration, Mean
  concentration at 0.25 h: 916 nM
[5]; RAG-2, mouse, plasma, intraperitoneal, 1 h, read-out: plasmatic concentration, Mean
  concentration at 1 h: 203 nM
[5]; RAG-2, mouse, plasma, intraperitoneal, 2 h, read-out: plasmatic concentration, Mean
  concentration at 2 h: 27.7 nM
[5]; RAG-2, mouse, plasma, intraperitoneal, 4 h, read-out: plasmatic concentration, Mean
  concentration at 4 h: 5 nM
[5]; RAG-2, mouse, plasma, intraperitoneal, 8 h, read-out: plasmatic concentration, Mean
  concentration at 8 h: 2.4 nM
[5]; RAG-2, mouse, plasma, intraperitoneal, 24 h, read-out: plasmatic concentration, Mean
  concentration at 24 h: 0.9 nM
[5]; RAG-2, mouse, plasma, ip, mice, NCA, read-out: Norm. Cl/F (converted)
  CL/F: 355 mL/min/kg
[5]; RAG-2, mouse, plasma, ip, mice, NCA, read-out: Norm. Vz/F
  Vd/F: 262 L/kg
[5]; mice
  clearance: 0.53 lh^−1
[6]; 10 µM, source data of Fig. 1B
  inhibition at 10 µM: 90%
[6]; Continuous Activity Assay for HDAC11
  IC50: 568 nM
